Measured values from patent publication US8158655B2, “Sulfonamide derivatives” (Hoffmann-La Roche Inc., priority 2007, dated 2012).
Where two headings read alike, the source gives them in different places.

Target: T1, Chymase purified from human skin mast cells (Homo sapiens, UniProt P23946)
T1 construct: Chymase purified from human skin mast cells was obtained from Calbiochem; purchased Calbiochem (Merck Biosciences, San Diego, Calif., USA); host or cells: human skin mast cells (natural source)
T1 sequence (P23946 22-247): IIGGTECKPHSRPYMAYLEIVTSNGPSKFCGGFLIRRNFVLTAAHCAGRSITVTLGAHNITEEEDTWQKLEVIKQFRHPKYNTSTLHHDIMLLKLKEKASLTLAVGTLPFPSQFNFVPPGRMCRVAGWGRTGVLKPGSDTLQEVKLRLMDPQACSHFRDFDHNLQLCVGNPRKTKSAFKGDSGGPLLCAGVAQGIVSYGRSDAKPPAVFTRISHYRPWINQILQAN
Test: chymase peptide substrate assay (AAPF-AMC fluorescence)
Type: biochemical
Method: The peptide was synthesized with a purity of 95% from Bachem, Bubendorf, Switzerland). Chymase purified from human skin mast cells was obtained from Calbiochem (Merck Biosciences, San Diego, Calif., USA). The assay buffer was 0.15 M NaCl, 0.05M, Tris HCl, 0.05% CHAPS (3-[(3-Cholamidopropyl)-dimethylammonio]-1-propane sulphonate), 0.1 mg/ml Heparin (Heparin sodium, Sigma, porcine intestinal mucosa), 0.02 mM AAPF-substrate, 1 nM Chymase at pH 7.4. The assay was performed in 96-well plates (Packard Optiplate), with a 0.05 ml volume at room temperature. Chymase activity was indicated by the initial rate of increase in fluorescence at 340/440 nm (excitation/emission) from free 7-amino-4-methylcoumarin released from the substrate. Inhibition of the activity by inhibitory compounds was read after 30 min pre-incubation with the chymase at room temperature in assay buffer without AAPF-substrate. The assay was then started by addition of the indicated concentration of AAPF-substrate.

[1] = 0.02 mM AAPF-substrate, 1 nM Chymase, pH 7.4, room temperature, 30 min pre-incubation, read-out: IC50

Row | IC50 [1] [nM] | IC50 [nM] | SMILES
1 | 106 |  | CCc1cc(-c2ccncc2)ccc1NS(=O)(=O)c1sc2ccc(F)cc2c1C [Example 16, 5-Fluoro-3-methyl-benzo[b]thiophene-2-sulfonic acid(2-ethyl-4-pyridin-4-yl-phenyl)-amide]
2 |  | 35 | Cc1c(S(=O)(=O)Nc2ccc(-c3ccncc3)cc2C(F)(F)F)sc2ccc(F)cc12 [Example 2, 5-Fluoro-3-methyl-benzo[b]thiophene-2-sulfonic acid(4-pyridin-4-yl-2-trifluoromethyl-phenyl)-amide]
3 | 3 |  | Cc1c(S(=O)(=O)Nc2ccc(C3CCNCC3)cc2S(C)(=O)=O)sc2ccc(F)cc12 [Example 21, 5-Fluoro-3-methyl-benzo[b]thiophene-2-sulfonic acid(2-methanesulfonyl-4-piperidin-4-yl-phenyl)-amide]
